The subject of this test is NRF2 (NQO1 activity as marker for NRF2 activation), BEAS-2B cells. The experiment in a line: BEAS-2B NQO1 MTT Assay. The note with it: Homo sapiens, EC50 of NQO1 specific activity induction, 48 hours incubation, read-out: EC50. The format is cell-based. From the text:
NAD(P)H:quinone oxidoreductase 1 (NQO1), also called DT diaphorase, is a homodimeric FAD-containing enzyme that catalyzes obligatory NAD(P)H-dependent two-electron reductions of quinones and protects cells against the toxic and neoplastic effects of free radicals and reactive oxygen species arising from one-electron reductions. The transcription of NQO1 is finely regulated by NRF2, and thus NQO1 activity is a good marker for NRF2 activation. On day one, frozen BEAS-2B cells (ATCC) are thawed in a water bath, counted, and re-suspended at a concentration of 250,000 cells/mL. Fifty microliters of cells are plated in 384 well black clear-bottomed plates. Plates are incubated at 37° C., 5% CO2 overnight. On day two, plates are centrifuged and 50 nL of compound or controls are added to the cells. Plates are then incubated at 37° C., 5% CO2 for 48 hours. On day four, medium is aspirated from the plate and crude cell lysates are made by adding 13 uL of 1× Cell Signaling Technologies lysis buffer with 1 Complete, Mini, EDTA-free Protease Inhibitor Tablet (Roche) for each 10 mL of lysis buffer. After lysis plates are incubated for 20 minutes at room temperature. Two microliters of lysate are removed for use in Cell Titer Glo assay (Promega) and MTT cocktail is prepared (Prochaska et. al. 1998) for measurement of NQO1 activity. Fifty microliters of MTT cocktail is added to each well, plate is centrifuged, and analyzed on an Envision plate reader (Perkin Elmer) using Absorbance 570 nm label for 30 minutes. Product formation is measured kinetically and the EC50 of NQO1 specific activity induction is calculated by plotting the change in absorbance (Delta OD/min) versus the log of compound concentration followed by 3-parameter fitting.
EC50s<1 nM (+++++), EC50s 1 nM-10 nM (++++), EC50s 10 nM-100 nM (+++), EC50s 100 nM-1 uM (++), EC50s 1-10 uM (+), EC50s>10 uM (−), or were not determined (ND).

Consider `CC[C@@H]1CN(Cc2cc([C@@H](c3ccc4c(nnn4CC)c3C)[C@@H](C)C(N)=O)ccc2C)Cc2ncccc2O1` [Example 182, (2R,3S)-3-(3-(((R)-2-ethyl-2,3-dihydropyrido[2,3-f][1,4]oxazepin-4(5H)-yl)methyl)-4-methylphenyl)-3-(1-ethyl-4-methyl-1H-benzo[d][1,2,3]triazol-5-yl)-2-methylpropanamide], for which the EC50 (as a rule, the concentration at which the effect is half-maximal) is 100 to 1000 nM. On to `CC[C@@H]1CN(Cc2cc([C@H](CC(=O)NCC3CCCO3)c3ccc4c(nnn4CC)c3C)ccc2C)S(=O)(=O)c2cccnc2O1` (stereo partly drawn) [Example 37, (3S)-3-(3-(((R)-4-Ethyl-1,1-dioxido-3,4-dihydro-2H-pyrido[2,3-b][1,4,5]oxathiazepin-2-yl)methyl)-4-methylphenyl)-3-(1-ethyl-4-methyl-1H-benzo[d][1,2,3]triazol-5-yl)-N-((tetrahydrofuran-2-yl)methyl)propanamide], for which the EC50 was in the range of 100 to 1000 nM. On to `CC[C@@H]1CN(Cc2cc([C@@H](c3ccc4c(nnn4C)c3C)C(C)(C)C(=O)Nc3cccnc3)ccc2Cl)S(=O)(=O)c2ccccc2O1` [Example 84, (S)-3-(4-Chloro-3-(((R)-4-ethyl-1,1-dioxido-3,4-dihydro-2H-benzo[b][1,4,5]oxathiazepin-2-yl)methyl)phenyl)-3-(1,4-dimethyl-1H-benzo[d][1,2,3]triazol-5-yl)-2,2-dimethyl-N-(pyridin-3-yl)propanamide], for which the EC50 was in the range of 10 to 100 nM. Then `CC[C@H]1Cc2ccccc2S(=O)(=O)N(Cc2cc([C@@H](c3ccc4c(nnn4CC)c3C)C(C)(C)C(=O)Nc3cncnc3)ccc2C)C1` [Example 93, (S)-3-(3-(((S)-4-Ethyl-1,1-dioxido-4,5-dihydrobenzo[f][1,2]thiazepin-2(3H)-yl)methyl)-4-methylphenyl)-3-(1-ethyl-4-methyl-1H-benzo[d][1,2,3]triazol-5-yl)-2,2-dimethyl-N-(pyrimidin-5-yl)propanamide], with 1 to 10 nM; and `CCn1nnc2c(C)c([C@@H](CC(=O)Nc3cccnc3)c3ccc(C)c(CN4C[C@@H](C)Cc5ccc(C(F)(F)F)cc5S4(=O)=O)c3)ccc21` [Example 174, (S)-3-(1-ethyl-4-methyl-1H-benzo[d][1,2,3]triazol-5-yl)-3-(4-methyl-3-(((S)-4-methyl-1,1-dioxido-8-(trifluoromethyl)-4,5-dihydrobenzo[f][1,2]thiazepin-2(3H)-yl)methyl)phenyl)-N-(pyridin-3-yl)propanamide], with 10 to 100 nM; and `CC[C@@H]1CN(Cc2cc(C(CC(=O)Nc3cccnc3)c3ccc(C#N)cc3C)ccc2C)S(=O)(=O)c2cccnc2O1` (single isomer, unassigned) [Example 69], with 100 to 1000 nM. Then `CC[C@@H]1CN(Cc2cc([C@@H](c3ccc4c(nnn4CC)c3C)C(C)(C)N(C)C(=O)c3cncnc3)ccc2C)S(=O)(=O)c2ccccc2O1` [Example 167, N—((S)-1-(3-(((R)-4-Ethyl-1,1-dioxido-3,4-dihydro-2H-benzo[b][1,4,5]oxathiazepin-2-yl)methyl)-4-methylphenyl)-1-(1-ethyl-4-methyl-1H-benzo[d][1,2,3]triazol-5-yl)-2-methylpropan-2-yl)-N-methylpyrimidine-5-carboxamide], with 10 to 100 nM. Then `CC[C@@H]1CN(Cc2cc([C@@H](c3ccc4c(nnn4CC)c3C)C(C)(C)NC(=O)c3cncc(F)c3)ccc2C)S(=O)(=O)c2ccccc2O1` [Example 154, N-((S)-1-(3-(((R)-4-Ethyl-1,1-dioxido-3,4-dihydro-2H-benzo[b][1,4,5]oxathiazepin-2-yl)methyl)-4-methylphenyl)-1-(1-ethyl-4-methyl-1H-benzo[d][1,2,3]triazol-5-yl)-2-methylpropan-2-yl)-5-fluoronicotinamide], with 10 to 100 nM.

The values above are taken from patent publication US11078216B2, “Bisaryl amides as NRF2 activators” (GLAXOSMITHKLINE INTELLECTUAL PROPERTY DEVELOPMENT LIMITED, priority 2016, dated 2021).
